The source of these data is patent publication US20230279025A1, “KRAS G12D INHIBITORS” (Mirati Therapeutics, Inc., priority 2020, published 2023).

Structures are written as SMILES. pIC50: −log10 of the molar value.

In this assay the target is KRas G12D (Homo sapiens (Human), UniProt P01116, G12D). The assay can be described thus: KRas G12D Binding Assay (TR-FRET displacement of Cy5 labelled tracer). Particulars: GDP-loaded KRAS G12D (amino acids 1:169), 60 minute incubation at 22° C. How it is done:
After a 60 minute incubation at 22° C., the reaction was measured using a PerkinElmer EnVision multimode plate reader via TR-FRET dual wavelength detection, and the percent of control (POC) calculated using a ratiometric emission factor. […] The POC values were fit to a 4-parameter logistic curve and the IC50 value was determined as the concentration where the curve crosses 50 POC.
ND stands for “not determined.”

Sequence of KRas G12D (P01116 other isoform, or with tags, fused parts or gaps G12D): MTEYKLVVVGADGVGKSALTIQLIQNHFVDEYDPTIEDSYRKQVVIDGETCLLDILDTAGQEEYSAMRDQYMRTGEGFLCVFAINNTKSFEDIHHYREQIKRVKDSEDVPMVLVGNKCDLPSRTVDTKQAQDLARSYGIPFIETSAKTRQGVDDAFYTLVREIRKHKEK

Turning to `Oc1ccc(OC(F)(F)F)c(-c2ncc3c(N4CC5CCC(C4)N5)nc(OCC45CCCN4C[C@H](F)C5)nc3c2F)c1` (mixture of isomers) [Example 340, 3-(4-((1R,5S)-3,8-diazabicyclo[3.2.1]octan-3-yl)-8-fluoro-2-((2-fluorotetrahydro-1H-pyrrolizin-7a(5H)-yl)methoxy)pyrido[4,3-d]pyrimidin-7-yl)-4-(trifluoromethoxy)phenol (racemic, trans)], the pIC50 (in general, −log10 of the IC50, conventionally taken in molar units) was 9.40. To `C[C@@H]1C[C@H]1c1ccccc1-c1ncc2c(N3C[C@H]4CC[C@@H](C3)N4)nc(OCC34CCCN3CCC4)nc2c1F` [Example 288, 4-((1R,5S)-3,8-diazabicyclo[3.2.1]octan-3-yl)-8-fluoro-2-((hexahydro-1H-pyrrolizin-7a-yl)methoxy)-7-(2-((1R,2R)-2-methylcyclopropyl)phenyl)pyrido[4,3-d]pyrimidine] belongs 6.23. To `Fc1c(-c2cccc3cccc(Cl)c23)ncc2c(N3C[C@H]4CC[C@@H](C3)N4)nc(OCc3cccn4ccnc34)nc12` [Example 150, 4-((1R,5S)-3,8-diazabicyclo[3.2.1]octan-3-yl)-7-(8-chloronaphthalen-1-yl)-8-fluoro-2-(imidazo[1,2-a]pyridin-8-ylmethoxy)pyrido[4,3-d]pyrimidine] belongs 5.70; to `Cc1ccc2sc(N)nc2c1-c1ncc2c(N3C[C@H]4CC[C@@H](C3)N4)nc(OCC34CCCN3CCC4)nc2c1F` [Example 458, 4-(4-((1R,5S)-3,8-diazabicyclo[3.2.1]octan-3-yl)-8-fluoro-2-((hexahydro-1H-pyrrolizin-7a-yl)methoxy)pyrido[4,3-d]pyrimidin-7-yl)-5-methylbenzo[d]thiazol-2-amine], 6.84; to `CN1CCC[C@H]1COc1nc(N2CC3CCC(C2)N3)c2cnc(-c3c(Cl)c(O)cc4ccccc34)c(F)c2n1` [Example 337, 4-(4-(3,8-diazabicyclo[3.2.1]octan-3-yl)-8-fluoro-2-(((S)-1-methylpyrrolidin-2-yl)methoxy)pyrido[4,3-d]pyrimidin-7-yl)-3-chloronaphthalen-2-ol], 8.66. Next, `Oc1ccc(OC(F)(F)F)c(-c2ncc3c(N4C[C@H]5CC[C@@H](C4)N5)nc(OCC45CCCN4CCC5)nc3c2F)c1` [Example 341, 3-(4-((1R,5S)-3,8-diazabicyclo[3.2.1]octan-3-yl)-8-fluoro-2-((tetrahydro-1H-pyrrolizin-7a(5H)-yl)methoxy)pyrido[4,3-d]pyrimidin-7-yl)-4-(trifluoromethoxy)phenol]: 9.15; `C[C@H]1C[C@H]1c1ccccc1-c1ncc2c(N3C[C@H]4CC[C@@H](C3)N4)nc(OCC34CCCN3CCC4)nc2c1F` [Example 287, 4-((1R,5S)-3,8-diazabicyclo[3.2.1]octan-3-yl)-8-fluoro-2-((hexahydro-1H-pyrrolizin-7a-yl)methoxy)-7-(2-((1R,2S)-2-methylcyclopropyl)phenyl)pyrido[4,3-d]pyrimidine]: 7.04. The compound `CNc1nc(N2CC3CCC(C2)N3)c2cnc(-c3cc(O)cc4ccccc34)c(F)c2n1` [Example 183, 4-[4-(3,8-diazabicyclo[3.2.1]octan-3-yl)-8-fluoro-2-(methylamino)pyrido[4,3-d]pyrimidin-7-yl]naphthalen-2-ol] gave a pIC50 of 6.41. Take `Fc1c(-c2cncc3cccc(Cl)c23)ncc2c(N3C[C@H]4CC[C@@H](C3)N4)nc(OC[C@]34CCCN3C[C@@H](F)C4)nc12` [Example 203, 4-((1R,5S)-3,8-diazabicyclo[3.2.1]octan-3-yl)-7-(5-chloroisoquinolin-4-yl)-8-fluoro-2-(((2S,7aR)-2-fluorotetrahydro-1H-pyrrolizin-7a(5H)-yl)methoxy)pyrido[4,3-d]pyrimidine]: the negative logarithm of the IC50 (pIC50) was 7.55. Next, `Cc1c(Cl)cccc1-c1ncc2c(N3C[C@H]4CC[C@@H](C3)N4)nc(OCC34CCCN3CCC4)nc2c1F` [Example 274, 4-((1R,5S)-3,8-diazabicyclo[3.2.1]octan-3-yl)-7-(3-chloro-2-methylphenyl)-8-fluoro-2-((hexahydro-1H-pyrrolizin-7a-yl)methoxy)pyrido[4,3-d]pyrimidine]: 7.44. For the compound `Cc1ccc2[nH]ncc2c1-c1ncc2c(N3CC4CCC(C3)N4)nc(OCC34CCCN3C[C@H](F)C4)nc2c1F` (mixture of isomers) [Example 331, 4-((1R,5S)-3,8-diazabicyclo[3.2.1]octan-3-yl)-8-fluoro-2-((2-fluorotetrahydro-1H-pyrrolizin-7a(5H)-yl)methoxy)-7-(5-methyl-1H-indazol-4-yl)pyrido[4,3-d]pyrimidine (racemic, trans)], the pIC50 is 6.94.

On to `C#Cc1c(F)ccc2cccc(-c3ncc4c(N5C[C@H]6CC[C@@H](C5)N6)nc(OC[C@]56CCCN5[C@@H](COC(=O)N(C)C)CC6)nc4c3F)c12` [Example 439, ((3R,7aR)-7a-(((4-((1R,5S)-3,8-diazabicyclo[3.2.1]octan-3-yl)-7-(8-ethynyl-7-fluoronaphthalen-1-yl)-8-fluoropyrido[4,3-d]pyrimidin-2-yl)oxy)methyl)hexahydro-1H-pyrrolizin-3-yl)methyl dimethylcarbamate], for which the pIC50 was 9.40.

In the case of `Oc1cc(-c2ncc3c(N4C[C@H]5CC[C@@H](C4)N5)nc(OCC45CCCN4C(CF)CC5)nc3c2F)c2ccccc2c1` (mixture of isomers) [Example 384, 4-(4-((1R,5S)-3,8-diazabicyclo[3.2.1]octan-3-yl)-8-fluoro-2-((3-(fluoromethyl)tetrahydro-1H-pyrrolizin-7a(5H)-yl)methoxy)pyrido[4,3-d]pyrimidin-7-yl)naphthalen-2-ol], the pIC50 was 8.62. For the compound `C#Cc1cccc2cc(O)cc(-c3ncc4c(N5C[C@H]6CC[C@@H](C5)N6)nc(OC[C@@]56CCCN5C[C@H](F)C6)nc4c3F)c12` [Example 243], the pIC50 is 9.40. As for `CCC#Cc1cccc2cccc(-c3ncc4c(N5C[C@H]6CC[C@@H](C5)N6)nc(OCC56CCCN5CCC6)nc4c3F)c12` [Example 242, 4-((1R,5S)-3,8-diazabicyclo[3.2.1]octan-3-yl)-7-(8-(but-1-yn-1-yl)naphthalen-1-yl)-8-fluoro-2-((tetrahydro-1H-pyrrolizin-7a(5H)-yl)methoxy)pyrido[4,3-d]pyrimidine], the negative logarithm of the IC50 (pIC50) was 7.09. To `Fc1c(-c2c(Cl)ccc3ccccc23)ncc2c(N3C[C@H]4CC[C@@H](C3)N4)nc(OCC34CCCN3CCC4)nc12` [Example 349, 4-((1R,5S)-3,8-diazabicyclo[3.2.1]octan-3-yl)-7-(2-chloronaphthalen-1-yl)-8-fluoro-2-((tetrahydro-1H-pyrrolizin-7a(5H)-yl)methoxy)pyrido[4,3-d]pyrimidine] belongs 6.25.

As to `N#C[C@H]1CCN2CCC[C@@]12COc1nc(N2CC3CCC(C2)N3)c2cnc(-c3cccc4cccc(Cl)c34)c(F)c2n1` (stereo in doubt) [Example 379, 7a-(((4-((1R,5S)-3,8-diazabicyclo[3.2.1]octan-3-yl)-7-(8-chloronaphthalen-1-yl)-8-fluoropyrido[4,3-d]pyrimidin-2-yl)oxy)methyl)hexahydro-1H-pyrrolizine-1-carbonitrile], the pIC50 was 6.60. The compound `O[C@@H]1C[C@@H]2CN(c3nc(OCCn4ccnc4C(F)(F)F)nc4c(F)c(-c5cccc6cccc(Cl)c56)ncc34)C[C@H]1N2` [Example 169, (1R,5R,6R)-3-(7-(8-chloronaphthalen-1-yl)-8-fluoro-2-(2-(2-(trifluoromethyl)-1H-imidazol-1-yl)ethoxy)pyrido[4,3-d]pyrimidin-4-yl)-3,8-diazabicyclo[3.2.1]octan-6-ol] showed a pIC50 of 6.18.
